“And” between values parts separate entries of the source, which are not always exact repeats. Identical values can stand only once. “Also recorded” adds a separate entry of the source. One block for each molecule: values may come before it.
What was measured:
[1] = Plasma pharmacokinetics of GF120918 after a single 1000 mg oral dose in cancer patients (HPLC); assay type: in vivo, human; conditions: 1000 mg oral GF120918; mean SD
Excerpt: (§1) Furthermore, oral administration may enable development of chronic treatment schedules resulting in sustained plasma concentrations above a pharmacological relevant threshold level. […] PATIENTS AND METHODS Patient population Patients with a histologically confirmed cancer refractory to current therapies were eligible for the study. Previous radiotherapy or chemotherapy other than taxoid therapy was allowed, provided that the last treatment was at least four weeks prior to study entry and any resulting toxicities were resolved. […] Patients were not eligible if they suffered from uncontrolled infec- tious disease, neurologic disease, bowel obstruction or sympto- matic brain metastases. Other exclusion criteria were concomitant use of known P-gp inhibitors and chronic use of H2-receptor antagonists or proton pump inhibitors. The study protocol was approved by the Medical Ethics Committee of the Institute and all patients gave written informed consent. […] The oral and i.v. course were randomized. […] Patient evaluation Pretreatment evaluation included a complete medical history and complete physical examination. […] Responses were evaluated according to the WHO criteria (World Health Organization, 1979). […] The time above the threshold concentrations of 0.05 M and 0.1 M (T > 0.05 M, T > 0.1 M) was determined using linear interpola- tion. […]

P-gp = system: P-gp; parameters: method as in Hyafil et al, 1993; conditions: ref Hyafil et al, 1993; cited from earlier work
[2] = Plasma pharmacokinetics of oral paclitaxel 120 mg/m2 combined with 1000 mg oral GF120918 in cancer patients (HPLC, non-compartmental); conditions: for mean AUCt of paclitaxel metabolite: after oral paclitaxel 120 mg/m2 + GF120918, n = 5, mean SD
Excerpt: (§2) Furthermore, oral administration may enable development of chronic treatment schedules resulting in sustained plasma concentrations above a pharmacological relevant threshold level. […] PATIENTS AND METHODS Patient population Patients with a histologically confirmed cancer refractory to current therapies were eligible for the study. Previous radiotherapy or chemotherapy other than taxoid therapy was allowed, provided that the last treatment was at least four weeks prior to study entry and any resulting toxicities were resolved. […] Patients were not eligible if they suffered from uncontrolled infec- tious disease, neurologic disease, bowel obstruction or sympto- matic brain metastases. Other exclusion criteria were concomitant use of known P-gp inhibitors and chronic use of H2-receptor antagonists or proton pump inhibitors. The study protocol was approved by the Medical Ethics Committee of the Institute and all patients gave written informed consent. […] The oral and i.v. course were randomized. […] Patient evaluation Pretreatment evaluation included a complete medical history and complete physical examination. Before each course, an interim history including concomitant medications taken, toxicities and performance status were registered and a physical examination was performed. Haematology was checked twice weekly after course 1 and 2 and weekly after subsequent courses. Blood chemistries including liver and renal function, serum electrolytes, total protein and albumin and glucose levels were checked weekly. All toxicities observed were graded according to the National Cancer Institute Common Toxicity Criteria (NCI CTC) (National Cancer Institute, 1988). Dose-limiting toxicities (DLT) were defined as grade 4 granulocytopenia of a duration of > 5 days, grade 4 thrombocytopenia of any duration or any grade 3/4 non- haematological toxicity except untreated nausea and vomiting. Tumour measurements were performed every other cycle, but initially after the first 2 i.v. courses. Responses were evaluated according to the WHO criteria (World Health Organization, 1979). Sample collection and analysis Blood samples for pharmacokinetic analyses were collected during course 1 and course 2. […] Blood samples were centrifuged, plasma was separated and samples were immediately stored at -20C until analysis. […] Blood samples were centrifuged at 4C, plasma was separated and samples were imme- diately stored at -20C until analysis. […] Pharmacokinetic analysis Non-compartmental pharmacokinetic methods were applied to process the results (Gibaldi and Perrier, 1982). […] The time above the threshold concentrations of 0.05 M and 0.1 M (T > 0.05 M, T > 0.1 M) was determined using linear interpola- tion. […] Statistical analysis of the data was performed using the nonparametric Mann-Whitney U-test. The a priori level of signifi- cance was P = 0.05.

[3] = Plasma pharmacokinetics of oral paclitaxel 120 mg/m2 combined with 15 mg kg-1 cyclosporin A in patients (previous study at the Institute); assay type: in vivo, human; conditions: for mean AUCt of paclitaxel metabolite: after oral paclitaxel + CsA, n = 3, mean SD, not published before
Excerpt: as §2, with “The a priori level of signifi- cance was P = 0.05.” left out

[4] = Plasma pharmacokinetics of i.v. paclitaxel 175 mg/m2 as 3-hour infusion in cancer patients (limited sampling model); assay type: in vivo, human; conditions: for AUC: human, plasma, iv
Excerpt: as §2

[5] = Toxicity in patients graded by NCI Common Toxicity Criteria; conditions: one course oral paclitaxel 120 mg/m2 + 1000 mg GF120918
Excerpt: as §1

[6] = system: histologically confirmed cancer refractory to current therapies; assay: Tumour response according to WHO criteria; assay type: in vivo, human; conditions: six patients; one oral course + GF120918, subsequent i.v. paclitaxel courses
Excerpt: as §1

[7] = parameters: method as in Malingre et al, 2000; conditions: ref Malingre et al, 2000, cited from earlier work
[8] = cited from earlier work
[9] = individual patients 1-6, oral 120 mg/m2 + GF120918 1000 mg

SMILES: CC(=O)O[C@H]1C(=O)[C@@]2(C)[C@H]([C@H](OC(=O)c3ccccc3)[C@]3(O)C[C@H](OC(=O)[C@H](O)[C@@H](NC(=O)c4ccccc4)c4ccc(O)cc4)C(C)=C1C3(C)C)[C@]1(OC(C)=O)CO[C@@H]1[C@@H](O)[C@@H]2O [6,3p-dihydroxypaclitaxel]
mean AUCt of paclitaxel metabolite [2]: 0.24 µM·h
mean AUCt of paclitaxel metabolite [3]: 0.88 µM·h

SMILES: CC(=O)O[C@H]1C(=O)[C@@]2(C)[C@H]([C@H](OC(=O)c3ccccc3)[C@]3(O)C[C@H](OC(=O)[C@H](O)[C@@H](NC(=O)c4ccccc4)c4ccccc4)C(C)=C1C3(C)C)[C@]1(OC(C)=O)CO[C@@H]1C[C@@H]2O [paclitaxel]
T > 0.1 µM, oral paclitaxel (time above 0.1 µM) [2, 9]: 8.8 h and 15.3 h and 9.6 h and 2.6 h and 4.2 h and 4.3 h
T > 0.05 M, oral paclitaxel (time above 0.05 M) [2, 9]: 15.1 h and 25.0 h and 23.9 h and 3.9 h and 6.1 h and 6.7 h
AUC ([4]; 175 mg/m2, AUC, i.v. paclitaxel, individual patients 1-6, 175 mg/m2, 3-hour infusion): 18.6 µM·h
AUC ([4]; 175 mg/m2, AUC, i.v. paclitaxel, mean SD, n = 6, 175 mg/m2, 3-hour infusion): 15.9 µM·h
AUC ([4]; 175 mg/m2, mean AUC of paclitaxel, i.v. paclitaxel 175 mg/m2, 3-hour infusion, mean ± SD): 15.9 µM·h
T > 0.1 µM, i.v. paclitaxel ([4]; individual patients 1-6, 175 mg/m2, 3-hour infusion): 22.3 h and 12.1 h and 20.9 h and 13.8 h and 16.6 h and 13.9 h
T > 0.1 µM, i.v. paclitaxel ([4]; mean, n = 6 (SD 4.2 printed in separate line), 175 mg/m2, 3-hour infusion): 16.6 h
tolerability of the oral combination of paclitaxel with GF120918 [5]: well tolerated; also recorded: very well tolerated
tumour responses [6]: no tumour responses were observed
mean AUC of paclitaxel ([7]; oral paclitaxel 120 mg/m2 + CsA, previously performed study, mean ± SD): 2.55 ± 2.29 µM·h
Cmax ([7]; read-out: Cmax, oral paclitaxel, oral 120 mg/m2 + 15 mg kg-1 cyclosporin A, n = 3, mean SD): 310 nM
oral bioavailability of paclitaxel ([8]; background statement, no P-gp blocker, no reference given): < 10%
increase in oral bioavailability of paclitaxel by co-administration of CsA ([8]; cancer patients, oral paclitaxel + CsA, ref Meerum Terwogt et al, 1998, 1999): at least 7 fold
bioavailability of single agent oral paclitaxel ([8]; oral 60 mg/m2 without P-gp blocker, vs i.v. 175 mg/m2, ref Meerum Terwogt et al, 1998, 1999): 4%
apparent bioavailability of oral paclitaxel as a single agent ([8]; using i.v. paclitaxel data at 100 mg/m2 and 125 mg/m2 (Huizing et al, 1997), ref Meerum Terwogt et al, 1999): 6%

SMILES: CC(=O)O[C@H]1C(=O)[C@@]2(C)[C@H]([C@H](OC(=O)c3ccccc3)[C@]3(O)C[C@H](OC(=O)[C@H](O)[C@@H](NC(=O)c4ccccc4)c4ccccc4)C(C)=C1C3(C)C)[C@]1(OC(C)=O)CO[C@@H]1[C@@H](O)[C@@H]2O [6-hydroxypaclitaxel]
mean AUCt of paclitaxel metabolite [2]: 0.4 µM·h
AUCt ratio 6-hydroxypaclitaxel/3p-hydroxypaclitaxel ([2]; oral paclitaxel + GF120918 (0.40/0.36)): 1.1
mean AUCt of paclitaxel metabolite [3]: 1.69 µM·h
AUCt ratio 6-hydroxypaclitaxel/3p-hydroxypaclitaxel ([3]; oral paclitaxel + CsA (1.69/0.48)): 3.5

Second part, led by results:

mean maximum concentration of GF120918 [1]: 434 267 ng ml-1
SMILES: COc1cc2c(cc1OC)CN(CCc1ccc(NC(=O)c3cccc4c(=O)c5cccc(OC)c5[nH]c34)cc1)CC2 [GF120918]
concentration at which active in in vitro models of P-gp inhibition (P-gp): around 20 nM

mean AUCt of paclitaxel metabolite [2]: 0.36 µM·h
mean AUCt of paclitaxel metabolite [3]: 0.48 µM·h
SMILES: CC(=O)O[C@H]1C(=O)[C@@]2(C)[C@H]([C@H](OC(=O)c3ccccc3)[C@]3(O)C[C@H](OC(=O)[C@H](O)[C@@H](NC(=O)c4ccccc4)c4ccc(O)cc4)C(C)=C1C3(C)C)[C@]1(OC(C)=O)CO[C@@H]1C[C@@H]2O [3p-hydroxypaclitaxel]

— PMC2363627 (British Journal of Cancer, 2001)
